Results: US11351154B2, “Molecular genetic approach to treatment and diagnosis of alcohol and drug dependence” (University of Virginia Patent Foundation, priority 2011, dated 2022)

Legend:
[1] = tested on: individuals who take topiramate; conditions: cited from earlier work
[2] = tested on: subjects of the ondansetron clinical trial (251 subjects); assay: CART decision-tree subgroup analysis of ondansetron treatment effect on percentage heavy drinking; type: in vivo, human; conditions: for E(Y|T=1), Y=phd base90-mean(phdweek): T=1(ondansetron)
Excerpt: A decision tree is a structure that can be used to divide up a large collection of records into successively smaller sets of records by applying a sequence of simple decision rules. One advantage of decision tree is that the results can be easily interpreted. CART is a popular decision tree algorithm first published in Breiman et al 1984. CART starts by dividing data into 2 sub-groups (child nodes) that are homogeneous with respect to a particular target variable, in our case the target variable is the binary class label Z. By doing exhaustive search over all possible cutoffs for all possible candidate covariates, sub-groups are formed by identifying optimal split point for the optimal candidate covariate. Repeat the process recursively at each child node until one of the stopping criteria is met. In the end, CART prunes tree to smaller optimal size using cross-validation. After the final tree is determined, the class label (treatment) for “new subjects” is given by running them down the tree and identifying which terminal node they belong. The class label of the terminal node is formed by majority vote of cases in this node, that is if the proportion of class 1 in this node p>0.5, then the class label is 1, otherwise is 0. Let t denote the node, which is a region of the covariates space. A Split denoted by s on a numeric variable Xj take the form Xj<xji, where xji is a cut-off selected by trying all values of Xj in the data set as candidate split points. s splits the node t into left and right daughter nodes […]. The impurity function is used as a measure of node homogeneity. To calculate the impact of a split, compute increase in purity (or reduction in impurity) and choose a split that gives maximal value over all possible splits as the best splitter for node t. Gini criterion is the usual splitting criteria chosen by CART for categorical target. […] The full tree would not do the best job when applied to new dataset. The CART identifies candidate sub-trees through a process of repeated pruning. CART relies on a concept called adjusted error rate, AERα(T)=error rate(T)+α node count(T). This is a measure that increases each tree(T)'s misclassification rate on the training set by imposing a complexity penalty based on the number of final nodes in the tree. One can form a sequence of sub-trees of the full tree by varying the penalty value (cost complexity parameter), α and determining the tree that minimizes the adjusted error rate. After deleting the subjects with missing data, 251 subjects were included in the data analysis. Y=phd […]=(phd base90,Onage,[…], . . . , […]). There are total 21 genotypes. T=1(ondansetron) and T=0(placebo). The goal is to find a subgroup defined by X where the treatment effect is significant. After transforming this problem to a classification problem. CART was used to find the best subgroup with decision tree form.

[3] = tested on: individuals in alcohol trials; conditions: naltrexone dose of 50 mg/day; cited from earlier work

CC1(C)O[C@@H]2[C@@H](CO[C@@]3(COS(N)(=O)=O)OC(C)(C)O[C@@H]23)O1 [topiramate, 2,3:4,5-Bis-O-(1-methylethylidene)-beta-D-fructopyranose sulfamate]
cognitive impairment reported, share of individuals ([1]; general population): 2.4% | occurrence rate of cognitive impairment ([1]; substance abuse field): about 18.7%

Cc1nccn1CC1CCc2c(c3ccccc3n2C)C1=O (centres unmarked) [OND, 9-methyl-3-[(2-methyl-1H-imidazol-1-yl)methyl]-1,2,3,9-tetrahydrocarbazol-4-one]
E(Y|T=1), Y=phd base90-mean(phdweek) ([2]; overall sample, 251 subjects): 32.1% | overall sample mean difference E(Y|T=1)−E(Y|T=0) ([2]; overall sample, ondansetron minus placebo): 0.2% | E(Y|T=1), Y=phd base90-mean(phdweek) ([2]; subgroup gen1=I (rs150226=AA or AG), 42 subjects): 50.9% | sample mean difference E(Y|T=1)−E(Y|T=0) ([2]; subgroup gen1=I (rs150226=AA or AG), ondansetron minus placebo): 28.7% | E(Y|T=1), Y=phd base90-mean(phdweek) ([2]; subgroup gen2: rs1150226=GG, rs1176719=AA or AG, phd base90≥0.8663, 49 subjects): 37.6% | sample mean difference E(Y|T=1)−E(Y|T=0) ([2]; subgroup gen2: rs1150226=GG, rs1176719=AA or AG, phd base90≥0.8663, ondansetron minus placebo): 15.0% | E(Y|T=1), Y=phd base90-mean(phdweek) ([2]; subgroup gen (gen1 + gen2), 91 subjects): 43.0% | sample mean difference E(Y|T=1)−E(Y|T=0) ([2]; subgroup gen (gen1 + gen2), ondansetron minus placebo): 20.6%

Cl.O=C1CC[C@@]2(O)[C@H]3Cc4ccc(O)c5c4[C@@]2(CCN3CC2CC2)[C@H]1O5 [naltrexone, 17-(Cyclopropylmethyl)-4,5a-epoxy-3,14-dihydroxymorphinan-6-one hydrochloride]
individuals unable to tolerate the dose [3]: about 15%
